According to patent publication US20070292876A1, “METHODS FOR IDENTIFICATION OF COMPOUNDS THAT MIMIC THE SENESCENCE-INDUCING ACTIVITY OF RETINOIC ACID RECEPTOR LIGANDS” (Ordway Research Institute, Inc., priority 2006, published 2007):
Entries after “also recorded” stand apart in the source; their conditions may differ.

Experiments:
Assay type in all cases: cell-based, human
MCF-7 cells [1] = assay: Effect on MCF-7 cell growth (cell number after 7 days exposure); details: LGD1550 100 nM, LG100815 10 μM, LGD1268 100 nM, LG101208 10 μM
Protocol: The bars represent cell number after 7 days of culture with the addition of DMSO (control), 100 nM RA, 100 nM RAR agonist LGD1550, 100 nM RXR agonist LGD1268, 10 μM RAR antagonist LG100815, and 10 μM RXR antagonist LG101208. Experiments were done in triplicate, and the results are expressed relative to the average of the control.
(§1) MCF-7 cells were plated at 5×10^5 per P100, and exposed on the next day to DMSO carrier, RA (100 nM), pan-RAR-specific ligands, LGD1550 (100 nM) and LG100815 (10 μM), pan-RXR specific agonist LGD1268, pan-RXR-specific antagonist LG101208, or drug-free DMSO carrier (control). The latter four compounds were provided by Ligand Pharmaceuticals, Inc. The effects of RAR ligands on the growth of MCF-7 cells were determined, as measured by the cell number after 7 days exposure to the compounds (FIG. 1) and on the fraction of cells expressing the senescence-associated β-galactosidase activity (SA-β-gal), a marker of senescence, after 7-day treatment with the compounds (FIG. 2).

MCF-7 cells [2] = assay: Senescence-associated β-galactosidase (SA-β-gal) positive fraction of MCF-7 cells; details: 7-day treatment; same concentrations as for cell growth
Protocol: The bars represent percentages of SA-P-gal+cells after 8 days of treatment with the indicated compounds (in triplicate). The compounds were used at the same concentrations as in FIG. 1.
as §1

MCF-7 cells [3] = assay: Affymetrix U133 Plus 2.0 microarray gene expression profiling: genes (oncogenes) inhibited by RAR ligands; details: 24, 48 or 72 hr treatment
Excerpt: (§2) FIG. 3 depicts microarray analysis of changes in gene expression in MCF-7 cells treated with RAR ligands LGD1550 or LG100815, plotted using GeneSpring software. The X axis represents different time points of treatment with RAR ligands (0 point correspond to cells cultured for 3 days with DMSO carrier). […] The groups of genes shown in panels (a) and (b) represent gene ontology (GO) categories, with the exclusion of genes showing raw signal intensity <10 in MCF-7 cells. The groups of genes shown in panels (c) and (d) represent the oncogenes and tumor suppressors listed in Table 1 and Table 2, respectively.
(§3) For the analysis of gene expression, cells treated with the carrier or with RAR ligands LGD1550 or LG100815 were collected after 24, 48 or 72 hr treatment. Total cellular RNA was isolated using Qiagen's RNeasy kit. For gene expression profiling, RNA samples were provided to the Microarray Core Facility at the Genomics Institute of the NYSDOH Wadsworth Center, which carried out biotinylated target preparation (using 2 μg RNA per assay) and hybridization with Affymetrix U133 Plus 2.0 microarrays. Data analysis was carried out using GeneSpring software (Agilent). Gene function analysis was carried out using Pathway Assist (Ariadne Genomics) and PubMed.
Gene Ontology groupings of genes with related biological functions (as provided in the GeneSpring software package) were surveyed for concerted response to RAR ligands. […] Strong downregulation of such genes has been associated with cell cycle arrest induced by chemotherapeutic drugs (Chang et al., 2002). In contrast, inhibition of these genes by RAR ligands was moderate (on average about 2-fold), with almost no genes showing 5-fold or stronger inhibition. On the other hand, we noticed that many of the genes that show the greatest fold inhibition by RAR ligands are known or putative oncogenes. Genes are defined herein as putative oncogenes or tumor suppressors if such genes have been reported in the literature to play a functional role in tumor cell growth, survival, tumorigenesis or metastasis, as determined by targeted inhibition, gene overexpression or protein addition studies.

MCF-7 cells [4] = assay: Affymetrix U133 Plus 2.0 microarray gene expression profiling: tumor suppressors induced by RAR ligands; details: 24, 48 or 72 hr treatment
Excerpt: as §2, §3
As previously described (Dokmanovic et al., 2002), retinoid treatment of MCF-7 cells induces genes that encode growth-inhibitory proteins, both intracellular (EPLIN and UBD) and secreted (IGFBP3 and TGFBI). Through the survey of the present microarray data, additional retinoid-inducible growth-inhibitory genes, induced both by LGD1550 and LG100815, have been identified. These genes, listed in Table 2, provide advantageous reporters for identifying compounds that mimic the senescence-inducing effects of retinoids. The products of these genes include both secreted factors and cell-associated proteins.

MDA-MB-231 cells = assay: Coculture of GFP-expressing MDA-MB-231 cells with RA-treated MCF-7 cells, MDA-MB-231 cell number by FACS
Protocol: Each bar represents MDA-MB-231 cell number after five days of culture relative to cell number in the absence of MCF-7 or RA. Mean and standard deviation were calculated from three independent experiments. • (b) MDA-MB-231 cells (GFP-expressing) were plated as 1:1 mixtures with MCF-7 cells that were either untreated or treated for eight days with 100 nM, and grown in the presence of DMSO carrier or 100 nM RA. Each bar represents MDA-MB-231 cell relative to MDA-MB-231 cell number in coculture with untreated MCF-7 without RA. Mean and standard deviation were calculated from three independent experiments.
Since retinoid-treated MCF-7 cells upregulate genes for secreted factors with different activities, a functional test was carried out to determine whether retinoid-treated MCF-7 cells express primarily pro-mitogenic or anti-mitogenic activity. In this assay, MCF-7 cells were mixed (1:1) with MDA-MB-231 breast carcinoma cells (insensitive to retinoids), which were transduced with Green Fluorescent Protein (GFP), providing the ability to distinguish and quantitate these cells by FACS analysis. The co-cultures were treated for five days with 100 nM RA. […] In contrast, retinoid treatment in coculture with MCF-7 decreased the number of MDA-MB-231 cells by about 25% (FIG. 4a). In another type of experiment, shown in FIG. 4b, MCF-7 cells were pre-treated for 8 days with RA, to allow for complete growth arrest and development of the senescent phenotype. The treated MCF-7 cells were collected by trypsinization and cocultured for three days with MDA-MB-231, in the presence or in the absence of RA. Coculture with RA-pretreated MCF-7 cells was sufficient to inhibit MDA-MB-231 cell growth by about 30%, as compared to coculture with untreated MCF-7 cells (FIG. 4B, left bar).

Cc1cc2c(cc1C1(c3ccc(C(=O)O)cn3)CC1)C(C)(C)CCC2(C)C [LGD1268]
MCF-7 cell growth (cell number) (MCF-7 cells [1]): did not inhibit cell growth; also recorded: modest but reproducible increase in cell growth
fraction of cells expressing SA-β-gal (senescent phenotype) (MCF-7 cells [2]): did not induce the senescent phenotype

CC(/C=C/C=C(\C)c1cc(C(C)(C)C)cc(C(C)(C)C)c1)=C\C(=O)O [LGD1550]
MCF-7 cell growth (cell number) (MCF-7 cells [1]): inhibited the cell growth
fraction of cells expressing SA-β-gal (senescent phenotype) (MCF-7 cells [2]): induced SA-β-gal to an extent similar to that of RA
Max fold inhibition of G6PD (MCF-7 cells [3]; probe 202275_at): 2.2 fold
Max fold inhibition of CCNA2 (MCF-7 cells [3]; probe 203418_at): 3.3 fold
Max fold inhibition of PTTG1 (MCF-7 cells [3]; probe 203554_x_at): 2.7 fold
Max fold inhibition of PBX3 (MCF-7 cells [3]; probe 204082_at): 3.4 fold
Max fold inhibition of FGFR3 (MCF-7 cells [3]; probe 204379_s_at): 5.0 fold
Max fold inhibition of TFF3 (MCF-7 cells [3]; probe 204623_at, secreted): 4.0 fold
Max fold inhibition of IRS1 (MCF-7 cells [3]; probe 204686_at): 2.6 fold
Max fold inhibition of MYB (MCF-7 cells [3]; probe 204798_at): 9.9 fold
Max fold inhibition of C4.4A (MCF-7 cells [3]; probe 204952_at): 8.1 fold
Max fold inhibition of ENTPD5 (MCF-7 cells [3]; probe 205757_at): 3.4 fold
Max fold inhibition of GREB1 (MCF-7 cells [3]; probe 205862_at): 4.8 fold
Max fold inhibition of HMMR (MCF-7 cells [3]; probe 207165_at): 2.9 fold
Max fold inhibition of CCND1 (MCF-7 cells [3]; probe 208711_s_at): 2.1 fold
Max fold inhibition of BMP7 (MCF-7 cells [3]; probe 209591_s_at, secreted): 1.8 fold
Max fold inhibition of CXCL12 (MCF-7 cells [3]; probe 209687_at, secreted): 5.7 fold
Max fold inhibition of MSX2 (MCF-7 cells [3]; probe 210319_x_at): 4.0 fold
Max fold inhibition of RET (MCF-7 cells [3]; probe 211421_s_at): 8.5 fold
Max fold inhibition of PIK3R1 (MCF-7 cells [3]; probe 212240_s_at): 2.0 fold
Max fold inhibition of MYBL1 (MCF-7 cells [3]; probe 213906_at): 2.6 fold
Max fold inhibition of MAFB (MCF-7 cells [3]; probe 218559_s_at): 7.5 fold
Max fold inhibition of VAV3 (MCF-7 cells [3]; probe 218807_at): 14.5 fold
Max fold inhibition of PDLIM2 (MCF-7 cells [3]; probe 219165_at): 4.0 fold
Max fold inhibition of ECT2 (MCF-7 cells [3]; probe 219787_s_at): 2.8 fold
Max fold inhibition of SPDEF (MCF-7 cells [3]; probe 220192_x_at): 14.2 fold
Max fold inhibition of AMIGO2 (MCF-7 cells [3]; probe 222108_at): 11.7 fold
Max fold inhibition of MALAT1 (MCF-7 cells [3]; probe 224559_at): 2.5 fold
Max fold induction of NBL1 (MCF-7 cells [4]; probe 37005_at): 4.0 fold
Max fold induction of GSN (MCF-7 cells [4]; probe 200696_s_at): 1.7 fold
Max fold induction of BTG1 (MCF-7 cells [4]; probe 200921_s_at): 2.5 fold
Max fold induction of PRSS11 (MCF-7 cells [4]; probe 201185_at, secreted): 1.9 fold
Max fold induction of BTG2 (MCF-7 cells [4]; probe 201236_s_at): 8.3 fold
Max fold induction of TGFBI (MCF-7 cells [4]; probe 201506_at, secreted): 53.0 fold
Max fold induction of MARCKS (MCF-7 cells [4]; probe 201669_s_at): 9.3 fold
Max fold induction of PRSS8 (MCF-7 cells [4]; probe 202525_at, secreted): 2.4 fold
Max fold induction of IRF1 (MCF-7 cells [4]; probe 202531_at): 5.3 fold
Max fold induction of FBLN5 (MCF-7 cells [4]; probe 203088_at, secreted): 10.1 fold
Max fold induction of IGFBP6 (MCF-7 cells [4]; probe 203851_at, secreted): 2.6 fold
Max fold induction of GADD45G (MCF-7 cells [4]; probe 204121_at): 3.8 fold
Max fold induction of UBD (MCF-7 cells [4]; probe 205890_s_at): 35.9 fold
Max fold induction of BATF (MCF-7 cells [4]; probe 205965_at): 2.7 fold
Max fold induction of CEACAM1 (MCF-7 cells [4]; probe 206576_s_at): 16.2 fold
Max fold induction of PPARG (MCF-7 cells [4]; probe 208510_s_at): 15.9 fold
Max fold induction of KLF6 (MCF-7 cells [4]; probe 208961_s_at): 2.2 fold
Max fold induction of DDIT3 (MCF-7 cells [4]; probe 209383_at): 2.5 fold
Max fold induction of NKX3-1 (MCF-7 cells [4]; probe 209706_at): 7.5 fold
Max fold induction of IGFBP3 (MCF-7 cells [4]; probe 210095_s_at, secreted): 32.2 fold
Max fold induction of SULF1 (MCF-7 cells [4]; probe 212354_at, secreted): 2.9 fold
Max fold induction of PDCD4 (MCF-7 cells [4]; probe 212593_s_at): 1.7 fold
Max fold induction of EI24 (MCF-7 cells [4]; probe 216396_s_at): 2.2 fold
Max fold induction of EPLIN (MCF-7 cells [4]; probe 217892_s_at): 18.8 fold
Max fold induction of PHLDA1 (MCF-7 cells [4]; probe 217996_at): 3.7 fold
Max fold induction of GDF15 (MCF-7 cells [4]; probe 221577_x_at, secreted): 7.2 fold
Max fold induction of FOXO3A (MCF-7 cells [4]; probe 224891_at): 2.3 fold
Max fold induction of HIPK2 (MCF-7 cells [4]; probe 225368_at): 3.7 fold
Max fold induction of TGFB2 (MCF-7 cells [4]; probe 228121_at, secreted): 2.0 fold
Max fold induction of CDKN2B (MCF-7 cells [4]; probe 236313_at): 3.2 fold
Max fold induction of VHL (MCF-7 cells [4]; probe 1559227_s_at): 2.0 fold

CC1=C(/C=C/C(C)=C/C=C/C(C)=C/C(=O)O)C(C)(C)CCC1 [RA, all-trans retinoic acid]
growth of MDA-MB-231 cells (MDA-MB-231 cells; 100 nM RA alone, without MCF-7 cells, five days): no effect
decrease of the number of MDA-MB-231 cells (MDA-MB-231 cells; 100 nM RA in 1:1 coculture with MCF-7, five days): about 25%
inhibition of MDA-MB-231 cell growth (MDA-MB-231 cells; coculture for three days with MCF-7 pre-treated 8 days with RA, vs coculture with untreated MCF-7): about 30%
effect of addition of RA to the coculture on MDA-MB-231 growth inhibition (MDA-MB-231 cells; coculture with RA-pretreated MCF-7, 100 nM RA present, three days): no significant effect
